Values of other authors in US20260174914A1, “METHOD OF TREATING PSMA-EXPRESSING CANCERS” (ENDOCYTE, INC., priority 2020, published 2026).

In the case of “XOMA 089: fully human monoclonal antibody that specifically binds and neutralizes TGF-beta 1 and 2 ligands”, the “cross-reactivity with rodent TGF-β” value (rodent TGF-β) is listed as “cross-reacts” and the “cross-reactivity with cynomolgus monkey TGF-β” value (cynomolgus monkey TGF-β) is listed as “cross-reacts”.
